Results from ChEMBL document CHEMBL1201862, “PubChem BioAssay data set” (2004).
The source made the active and inactive calls.

How the values were obtained:
[1] = target: Peroxisome proliferator-activated receptor gamma/Nuclear receptor coactivator 2 (Homo sapiens, UniProt P37231); test: TR-FRET dose response biochemical High Throughput Screening assay for agonists of the steroid receptor coactivator 2 (SRC-2) recruitment by the peroxisome proliferator-activated receptor gamma (PPAR gamma): non-selective agonists. [Related pubchem assays: 1297, 1032 ]; type: functional
[2] = target: Peroxisome proliferator-activated receptor gamma/Nuclear receptor coactivator 1 (Homo sapiens, UniProt P37231); test: TR-FRET dose response biochemical High Throughput Screening assay for agonists of the steroid receptor coactivator 1 (SRC-1) recruitment by the peroxisome proliferator-activated receptor gamma (PPAR gamma): non-selective agonists. [Related pubchem assays (depositor defined):AID1300, AID1808, AID504735, AID631]; type: protein assay
Chain of Peroxisome proliferator-activated receptor gamma/Nuclear receptor coactivator 1 (P37231 whole entry): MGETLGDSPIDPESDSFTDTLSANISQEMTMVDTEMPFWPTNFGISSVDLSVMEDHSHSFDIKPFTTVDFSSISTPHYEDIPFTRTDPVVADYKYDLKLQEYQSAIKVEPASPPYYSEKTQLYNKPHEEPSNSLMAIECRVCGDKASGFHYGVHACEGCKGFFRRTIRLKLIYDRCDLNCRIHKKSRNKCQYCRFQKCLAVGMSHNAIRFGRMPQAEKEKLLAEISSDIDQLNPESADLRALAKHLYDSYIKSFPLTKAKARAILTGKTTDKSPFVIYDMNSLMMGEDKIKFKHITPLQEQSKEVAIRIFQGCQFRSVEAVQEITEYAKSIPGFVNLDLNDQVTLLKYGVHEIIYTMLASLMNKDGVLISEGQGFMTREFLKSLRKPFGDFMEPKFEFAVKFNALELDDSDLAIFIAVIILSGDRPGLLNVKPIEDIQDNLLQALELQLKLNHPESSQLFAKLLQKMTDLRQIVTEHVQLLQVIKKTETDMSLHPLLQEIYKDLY
Chain of Peroxisome proliferator-activated receptor gamma/Nuclear receptor coactivator 1 (Q15788 whole entry, further chain): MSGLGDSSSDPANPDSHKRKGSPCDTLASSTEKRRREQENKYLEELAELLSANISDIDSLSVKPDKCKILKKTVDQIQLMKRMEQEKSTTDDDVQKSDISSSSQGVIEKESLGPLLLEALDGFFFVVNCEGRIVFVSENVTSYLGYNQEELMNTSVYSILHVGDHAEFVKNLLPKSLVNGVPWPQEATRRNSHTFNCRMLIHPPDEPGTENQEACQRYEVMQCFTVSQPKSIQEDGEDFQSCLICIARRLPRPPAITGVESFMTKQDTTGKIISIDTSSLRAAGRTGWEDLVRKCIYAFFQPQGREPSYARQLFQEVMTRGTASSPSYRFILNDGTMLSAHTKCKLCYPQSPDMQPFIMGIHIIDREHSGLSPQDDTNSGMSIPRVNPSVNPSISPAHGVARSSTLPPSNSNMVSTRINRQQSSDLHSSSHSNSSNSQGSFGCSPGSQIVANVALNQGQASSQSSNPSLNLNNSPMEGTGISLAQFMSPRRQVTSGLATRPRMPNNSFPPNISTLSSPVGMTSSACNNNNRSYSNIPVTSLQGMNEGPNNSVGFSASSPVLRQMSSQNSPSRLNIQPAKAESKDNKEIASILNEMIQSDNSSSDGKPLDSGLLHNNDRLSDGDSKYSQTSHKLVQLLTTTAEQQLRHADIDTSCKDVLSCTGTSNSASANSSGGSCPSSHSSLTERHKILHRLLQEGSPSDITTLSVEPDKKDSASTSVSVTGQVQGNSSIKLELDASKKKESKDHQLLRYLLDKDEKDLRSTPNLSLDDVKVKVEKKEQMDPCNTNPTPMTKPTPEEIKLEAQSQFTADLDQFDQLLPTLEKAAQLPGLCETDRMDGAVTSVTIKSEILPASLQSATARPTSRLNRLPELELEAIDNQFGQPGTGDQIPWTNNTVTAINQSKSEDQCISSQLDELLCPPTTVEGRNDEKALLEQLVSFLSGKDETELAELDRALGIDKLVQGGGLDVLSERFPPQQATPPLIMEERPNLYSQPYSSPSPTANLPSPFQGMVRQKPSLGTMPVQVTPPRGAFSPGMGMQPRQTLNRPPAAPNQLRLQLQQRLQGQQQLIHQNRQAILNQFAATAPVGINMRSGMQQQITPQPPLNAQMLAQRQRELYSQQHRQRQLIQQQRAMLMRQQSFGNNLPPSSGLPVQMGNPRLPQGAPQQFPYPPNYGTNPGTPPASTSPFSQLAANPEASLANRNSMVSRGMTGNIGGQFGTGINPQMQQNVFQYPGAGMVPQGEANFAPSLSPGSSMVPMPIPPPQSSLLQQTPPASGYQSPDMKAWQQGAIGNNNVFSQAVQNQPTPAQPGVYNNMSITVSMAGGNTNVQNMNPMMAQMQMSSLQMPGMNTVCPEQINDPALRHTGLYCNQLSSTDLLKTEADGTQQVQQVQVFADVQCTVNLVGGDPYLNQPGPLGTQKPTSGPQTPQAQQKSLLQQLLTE

[3] = target: Peroxisome proliferator-activated receptor gamma/Nuclear receptor coactivator 3 (Homo sapiens, UniProt P37231); test: TR-FRET dose response biochemical High Throughput Screening assay for agonists of the steroid receptor coactivator 3 (SRC-3) recruitment by the peroxisome proliferator-activated receptor gamma (PPAR gamma): non-selective agonists. [Related pubchem assays: 1301 (Confirmation screen.), 1048 (Primary screen.)]; type: functional
Chain of Peroxisome proliferator-activated receptor gamma/Nuclear receptor coactivator 3 (P37231 whole entry): as the sequence (P37231 whole entry) above
Chain of Peroxisome proliferator-activated receptor gamma/Nuclear receptor coactivator 3 (Q9Y6Q9 whole entry, further chain): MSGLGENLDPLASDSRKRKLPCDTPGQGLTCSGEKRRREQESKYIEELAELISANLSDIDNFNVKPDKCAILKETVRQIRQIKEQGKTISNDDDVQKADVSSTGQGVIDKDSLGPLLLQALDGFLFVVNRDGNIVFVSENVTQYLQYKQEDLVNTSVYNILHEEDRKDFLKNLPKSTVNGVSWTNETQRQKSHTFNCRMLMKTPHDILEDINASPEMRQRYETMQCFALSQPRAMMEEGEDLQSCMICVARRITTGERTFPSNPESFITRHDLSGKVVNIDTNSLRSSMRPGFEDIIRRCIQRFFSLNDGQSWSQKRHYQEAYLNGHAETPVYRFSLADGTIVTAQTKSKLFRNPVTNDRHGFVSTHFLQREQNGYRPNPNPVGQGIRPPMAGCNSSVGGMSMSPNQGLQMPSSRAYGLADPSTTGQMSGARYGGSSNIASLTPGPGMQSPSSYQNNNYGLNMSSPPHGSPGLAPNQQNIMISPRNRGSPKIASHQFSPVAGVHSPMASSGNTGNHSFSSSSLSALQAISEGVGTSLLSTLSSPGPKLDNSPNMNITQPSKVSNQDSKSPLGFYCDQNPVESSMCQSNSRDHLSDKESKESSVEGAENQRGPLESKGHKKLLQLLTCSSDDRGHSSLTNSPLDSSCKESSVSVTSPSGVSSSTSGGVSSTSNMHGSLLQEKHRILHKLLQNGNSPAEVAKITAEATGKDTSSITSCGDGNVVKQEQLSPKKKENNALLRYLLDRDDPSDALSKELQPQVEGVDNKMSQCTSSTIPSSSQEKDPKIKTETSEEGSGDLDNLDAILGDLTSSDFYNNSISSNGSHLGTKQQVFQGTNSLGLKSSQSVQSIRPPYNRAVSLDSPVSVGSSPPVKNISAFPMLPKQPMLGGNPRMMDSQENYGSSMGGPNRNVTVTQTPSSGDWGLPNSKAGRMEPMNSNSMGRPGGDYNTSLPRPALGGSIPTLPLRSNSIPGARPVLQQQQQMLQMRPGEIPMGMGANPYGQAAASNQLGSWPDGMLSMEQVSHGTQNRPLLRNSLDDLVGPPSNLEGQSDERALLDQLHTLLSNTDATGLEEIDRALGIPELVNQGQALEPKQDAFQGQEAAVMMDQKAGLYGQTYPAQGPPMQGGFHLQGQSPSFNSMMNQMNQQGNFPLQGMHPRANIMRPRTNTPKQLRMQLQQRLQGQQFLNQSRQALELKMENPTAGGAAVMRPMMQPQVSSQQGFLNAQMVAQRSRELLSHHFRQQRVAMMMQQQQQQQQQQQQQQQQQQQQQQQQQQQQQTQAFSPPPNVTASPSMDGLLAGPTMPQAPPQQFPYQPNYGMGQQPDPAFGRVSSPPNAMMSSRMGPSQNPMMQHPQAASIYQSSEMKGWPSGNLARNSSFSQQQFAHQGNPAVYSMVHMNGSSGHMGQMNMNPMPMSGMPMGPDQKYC

[4] = activation of miR-122 Renilla sensor silencing – cell-based, Huh7 psiCHECK-miR122, Renilla luciferase, cherry-picked, dose response (AID 651956); type: functional;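 further: huh7 hepatoma cells stably carrying a psiCHECK-2 miR-122 sensor plasmid; renilla luciferase signal reporting endogenous miR-122 activity after 48 h compound exposure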
[5] = system: HEK293; test: EBV LMP1 TES2 canonical NF-kB signalling blockers – cell-based, HEK293, luciferase, cherry-pick, dose response (AID 588343); type: functional; settings: Homo sapiens
[6] = system: Vero; test: cells; type: functional, cell-based; settings: Chlorocebus sabaeus
[7] = system: Vero; test: cells; type: functional; settings: Chlorocebus sabaeus
[8] = NIH3T3 cell viability loss – ATP luminescence, mouse fibroblasts, counter-screen, dose response (AID 2010); type: functional, cell-based;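 further: cells exposed to compound for about 90 hours before reading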
[9] = Trypanosoma cruzi growth suppression in host cells – NIH3T3 host cells, beta-gal luminescence, confirmation (AID 2044); type: functional, cell-based;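 further: intracellular parasites grown in NIH/3T3 mouse fibroblasts as host cells; luminescent beta-galactosidase reporter signal from transgenic T. cruzi replicating inside host cells; inhibitors lower the luminescence signal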
[10] = target: Heat shock protein HSP 90-alpha (Homo sapiens, UniProt P07900); type: functional, organism-based
[11] = system: BJ; test: BJ-TERT-LT-ST fibroblast viability loss – cell-based, RAS-independent, luminescence, dose response (AID 1935); type: functional; settings: Homo sapiens;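 further: BJ fibroblasts immortalized with TERT plus LT and ST oncogenes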
[12] = target: Luciferin 4-monooxygenase (Photinus pyralis, UniProt P08659); test: inhibition of purified Photinus pyralis luciferase – biochemical, luminescence, dose response (AID 1891)
[13] = Luminescence Cell-Based Dose Confirmation HTS to Identify Inhibitors of Platelet Dense Granule Release. [Related pubchem assays: 1663 (Primary HTS), 1678 (Summary of Project)]; type: functional
[14] = system: BJ; test: BJ-TERT fibroblast viability loss – cell-based, RAS-independent, luminescence, dose response (AID 1933); type: functional; settings: Homo sapiens
[15] = DRD fibroblast viability loss – cell-based, non-viral oncogenic, luminescence, dose response (AID 1934); type: functional; settings: Homo sapiens
[16] = system: BJ; test: cells; type: functional, cell-based; settings: Homo sapiens
[17] = HEK-293T viability loss after treatment – luminescence, T-cell screen hits, cytotoxicity control for TCR NF-kB inhibitor project, dose response (AID 489026); type: functional, cell-based;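 further: cells exposed to compound about 14 hours before the viability readout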
[18] = target: Paired box protein Pax-8 (Homo sapiens, UniProt Q06710); test: PAX8 transcriptional activity inhibition in RMG-I – RMG-I cells, luciferase, cherry-pick, dose response (AID 687027); type: functional, cell-based;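 further: luciferase reporter driven by Pax8 target thyroperoxidase promoter measured by SteadyGlo luminescence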
[19] = system: Vero; test: viability of Vero cells under compound – cytotoxicity control for flavivirus capping enzyme inhibitors (AID 588742); type: functional; settings: Chlorocebus sabaeus
[20] = target: Cytochrome P450 2C9 (Homo sapiens, UniProt P11712)
[21] = target: T1, Replicative DNA helicase DnaB (Mycobacterium tuberculosis, UniProt P9WMR3); test: DnaB intein splicing inhibitors, dose response, biochemical, cell-free fluorescence (AID 449749); type: functional
T1 sequence (P9WMR3 whole entry): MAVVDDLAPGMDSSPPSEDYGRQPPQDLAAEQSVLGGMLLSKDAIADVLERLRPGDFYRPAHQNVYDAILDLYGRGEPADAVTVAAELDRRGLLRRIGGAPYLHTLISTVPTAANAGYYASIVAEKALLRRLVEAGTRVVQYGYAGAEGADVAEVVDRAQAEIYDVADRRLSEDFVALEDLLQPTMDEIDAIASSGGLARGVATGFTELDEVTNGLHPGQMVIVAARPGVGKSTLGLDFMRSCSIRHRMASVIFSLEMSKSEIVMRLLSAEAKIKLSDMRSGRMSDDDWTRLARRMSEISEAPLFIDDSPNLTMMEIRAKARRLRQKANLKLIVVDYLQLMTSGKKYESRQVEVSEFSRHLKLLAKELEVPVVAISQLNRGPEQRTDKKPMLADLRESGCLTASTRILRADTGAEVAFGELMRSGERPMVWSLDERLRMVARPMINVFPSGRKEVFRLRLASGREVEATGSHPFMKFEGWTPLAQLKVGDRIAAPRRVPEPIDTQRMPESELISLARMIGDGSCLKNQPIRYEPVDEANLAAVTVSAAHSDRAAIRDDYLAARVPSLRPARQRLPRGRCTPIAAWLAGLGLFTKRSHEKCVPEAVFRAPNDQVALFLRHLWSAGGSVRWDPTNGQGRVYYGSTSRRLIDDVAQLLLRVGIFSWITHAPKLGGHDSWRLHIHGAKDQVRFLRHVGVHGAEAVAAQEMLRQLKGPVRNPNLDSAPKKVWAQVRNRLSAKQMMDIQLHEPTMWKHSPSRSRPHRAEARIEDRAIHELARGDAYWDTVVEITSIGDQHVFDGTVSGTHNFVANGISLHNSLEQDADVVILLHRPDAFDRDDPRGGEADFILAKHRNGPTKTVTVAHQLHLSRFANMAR

[22] = target: Genome polyprotein (dengue virus type 2, UniProt P29990); test: flavivirus cap methylation enzyme inhibition – biochemical, confirmation dose response, primary screen (AID 588689); type: functional
[23] = target: T2, Protein RecA (Mycobacterium tuberculosis, UniProt P9WHJ3); test: Fluorescence Cell-Free Homogeneous Dose Retest to Identify Inhibitors of RecA-Intein Splicing Activity. [Related pubchem assays (depositor defined):AID2097, AID2223, AID489010, AID492950]; type: functional
T2 sequence (P9WHJ3 whole entry): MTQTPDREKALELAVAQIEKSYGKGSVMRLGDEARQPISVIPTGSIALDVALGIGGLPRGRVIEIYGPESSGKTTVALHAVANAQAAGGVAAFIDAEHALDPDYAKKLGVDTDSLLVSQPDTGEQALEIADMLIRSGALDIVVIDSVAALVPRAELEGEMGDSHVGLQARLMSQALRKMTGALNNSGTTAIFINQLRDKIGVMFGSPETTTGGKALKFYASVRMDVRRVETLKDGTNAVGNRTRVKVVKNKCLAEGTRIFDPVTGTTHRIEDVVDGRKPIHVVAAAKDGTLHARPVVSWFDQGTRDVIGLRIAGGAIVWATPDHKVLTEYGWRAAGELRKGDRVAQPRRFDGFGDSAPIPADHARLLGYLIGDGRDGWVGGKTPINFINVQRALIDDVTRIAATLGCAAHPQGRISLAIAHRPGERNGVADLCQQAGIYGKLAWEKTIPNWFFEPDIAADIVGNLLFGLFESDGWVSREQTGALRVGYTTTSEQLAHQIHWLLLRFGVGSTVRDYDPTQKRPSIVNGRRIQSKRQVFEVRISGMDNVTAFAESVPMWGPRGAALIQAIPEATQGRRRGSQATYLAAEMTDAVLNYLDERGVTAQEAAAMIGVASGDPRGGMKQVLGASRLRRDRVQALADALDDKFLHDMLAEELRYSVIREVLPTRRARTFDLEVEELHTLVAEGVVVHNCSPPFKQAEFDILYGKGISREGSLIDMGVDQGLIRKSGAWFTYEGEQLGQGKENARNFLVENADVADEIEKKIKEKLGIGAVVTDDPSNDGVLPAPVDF

[24] = Luminescence Cell-Based Dose Retest to Confirm Inhibitors of Cancer Stem Cells. [Related pubchem assays (depositor defined):AID2717, AID2721]; type: functional; settings: Homo sapiens
[25] = target: T3, Type-1 angiotensin II receptor (Homo sapiens, UniProt P30556); test: antagonism of angiotensin II type 1 receptor – cell-based, uHTS hits, selectivity assay for APJ receptor antagonist project, dose response (AID 463214); type: functional;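 further: antagonist potency against angiotensin II stimulated AT1 response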
T3 sequence (P30556 whole entry): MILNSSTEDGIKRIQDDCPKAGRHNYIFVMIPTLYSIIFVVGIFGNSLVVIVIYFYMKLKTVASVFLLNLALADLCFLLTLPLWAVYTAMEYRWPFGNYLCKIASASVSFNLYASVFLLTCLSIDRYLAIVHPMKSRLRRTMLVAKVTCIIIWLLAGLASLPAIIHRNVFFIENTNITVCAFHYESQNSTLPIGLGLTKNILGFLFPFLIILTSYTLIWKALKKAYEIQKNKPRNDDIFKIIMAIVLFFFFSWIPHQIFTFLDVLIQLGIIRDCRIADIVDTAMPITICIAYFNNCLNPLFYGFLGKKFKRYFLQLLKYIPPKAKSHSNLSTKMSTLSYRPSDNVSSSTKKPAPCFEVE

[26] = target: Beta-galactosidase (Escherichia coli, UniProt Q8VNN2); test: PubChem AID 485352; type: functional
Chain of Beta-galactosidase (Q8VNN2 whole entry): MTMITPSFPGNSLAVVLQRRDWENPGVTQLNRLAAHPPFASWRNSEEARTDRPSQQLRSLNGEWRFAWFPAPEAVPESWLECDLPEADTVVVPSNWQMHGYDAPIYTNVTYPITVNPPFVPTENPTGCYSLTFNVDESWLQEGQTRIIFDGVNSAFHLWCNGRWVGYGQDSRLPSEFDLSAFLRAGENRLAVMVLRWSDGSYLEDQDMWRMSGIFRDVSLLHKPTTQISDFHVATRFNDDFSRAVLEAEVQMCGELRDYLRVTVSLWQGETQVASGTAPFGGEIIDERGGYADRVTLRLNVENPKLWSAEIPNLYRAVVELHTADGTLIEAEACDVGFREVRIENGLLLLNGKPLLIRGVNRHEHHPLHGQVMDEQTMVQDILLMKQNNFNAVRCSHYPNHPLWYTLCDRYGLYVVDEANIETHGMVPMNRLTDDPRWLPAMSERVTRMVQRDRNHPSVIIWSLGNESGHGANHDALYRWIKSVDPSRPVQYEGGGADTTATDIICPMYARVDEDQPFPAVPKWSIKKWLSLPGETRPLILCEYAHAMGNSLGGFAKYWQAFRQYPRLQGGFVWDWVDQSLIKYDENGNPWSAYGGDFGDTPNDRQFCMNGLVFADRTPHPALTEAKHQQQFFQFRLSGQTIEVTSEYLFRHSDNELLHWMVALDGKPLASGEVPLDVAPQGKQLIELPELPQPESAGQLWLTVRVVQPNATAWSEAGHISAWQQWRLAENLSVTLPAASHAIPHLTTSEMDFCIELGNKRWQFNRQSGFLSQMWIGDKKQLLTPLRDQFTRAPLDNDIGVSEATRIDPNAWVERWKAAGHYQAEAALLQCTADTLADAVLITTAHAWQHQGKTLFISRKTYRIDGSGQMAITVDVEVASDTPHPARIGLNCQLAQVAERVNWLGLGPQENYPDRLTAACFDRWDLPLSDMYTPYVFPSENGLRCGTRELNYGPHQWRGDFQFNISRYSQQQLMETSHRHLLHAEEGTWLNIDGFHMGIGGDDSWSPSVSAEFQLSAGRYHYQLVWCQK

[27] = target: T4, Heat shock factor protein 1 (Mus musculus, UniProt P38532); test: enhancement of HSF1-driven luciferase signal – cell-based, NIH3T3, luminescence, dose retest, confirmation (AID 435004); type: functional;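 further: stress induced by proteasome inhibitor MG132 added 30 min after compound; luciferase reporter driven by HSF1 response element in NIH3T3 cells; actives raise luminescence as potentiators of the MG132 stress response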
T4 sequence (P38532 whole entry): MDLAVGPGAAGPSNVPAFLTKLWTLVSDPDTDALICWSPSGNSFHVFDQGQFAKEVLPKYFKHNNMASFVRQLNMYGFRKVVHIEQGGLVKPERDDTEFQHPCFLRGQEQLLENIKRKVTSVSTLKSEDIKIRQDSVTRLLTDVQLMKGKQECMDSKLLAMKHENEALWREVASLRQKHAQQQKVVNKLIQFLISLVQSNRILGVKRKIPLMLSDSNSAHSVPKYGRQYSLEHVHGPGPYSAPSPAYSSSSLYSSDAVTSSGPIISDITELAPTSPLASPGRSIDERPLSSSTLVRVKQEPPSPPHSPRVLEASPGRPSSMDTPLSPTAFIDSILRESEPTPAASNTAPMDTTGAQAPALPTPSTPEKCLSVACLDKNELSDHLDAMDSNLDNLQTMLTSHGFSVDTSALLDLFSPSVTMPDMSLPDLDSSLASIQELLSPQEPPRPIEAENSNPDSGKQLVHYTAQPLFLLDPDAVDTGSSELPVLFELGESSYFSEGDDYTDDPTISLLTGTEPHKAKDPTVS

Compound: CCCCOC(=O)C(C)Nc1n[nH]c(=S)[nH]c1=O (centres undefined)
- EC50 [1]: 16.3 µM (not active)
- EC50 [2]: 17.3 µM (inactive)
- EC50 [3]: > 79.4 µM (not active)

Compound: CCCC#Cc1ccc2c(c1)O[C@H](CN(C)C(=O)COC)[C@H](C)CN([C@@H](C)CO)S2(=O)=O
- AC50 [4]: 1.19 µM (active)

Compound: CC(=O)c1c(C)[nH]c(C(=O)Nc2ccc(C)cn2)c1C
- AC50 [5]: 1.7 µM (active)

Compound: CN(C)CCCNC(=O)/C=C/c1ccc(OCc2c(F)cccc2Cl)cc1
- IC50 [6]: 23.5 µM (active)
- CC50 [7]: > 25 µM (active)
- EC50 [8]: 8.47 µM (active)
- EC50 [9]: 0.327 µM (active)

Compound: Cc1ccc(CSc2nc3ccsc3c(=O)n2Cc2ccccn2)cc1
- AC50 [10]: 5 µM (active)

Compound: COc1cccc(/C=N/Nc2ncccc2[N+](=O)[O-])c1OC
- EC50 [11]: > 150 µM (not active)
- EC50 [12]: 5.27 µM (active)
- EC50 [13]: 3.32 µM (active)
- EC50 [14]: 17.6 µM (active)
- EC50 [15]: 13.5 µM (active)
- EC50 [16]: 15.6 µM (inconclusive)
- AC50 [5]: 1.8 µM (active)

Compound: O[C@@H]1[C@@H](O)C=C2CCN3Cc4cc5c(cc4[C@H]1C23)OCO5 (some centres undefined)
- IC50 [17]: > 80 µM (inactive)
- AC50 [18]: 1.88 µM (active)
- IC50 [6]: > 25 µM (active)
- CC50 [7]: 5.86 µM (active)

Compound: CC(=O)/N=c1\sc2nc3ccccc3nc2n1N(C(C)=O)C(C)=O
- EC50 [1]: 22.9 µM (not active)
- EC50 [2]: 25.2 µM (inactive)
- EC50 [3]: > 79.4 µM (not active)

Compound: CCC(C)(C)n1nnnc1C(C(C)C)N(Cc1ccco1)Cc1cc2cc3c(cc2nc1O)OCO3 (centres undefined)
- CC50 [19]: > 40 µM (active)
- AC50 [20]: inconclusive

Compound: Cn1nc([N+](=O)[O-])c(C(C#N)c2ccccn2)c(Cl)c1=O (centres undefined)
- AC50 [21]: 25.8 µM (active)
- IC50 [22]: 26.5 µM (active)
- EC50 [23]: 9.8 µM (active)
- AC50 [24]: 5.48 µM (active)
- CC50 [19]: 12 µM (active)
- EC50 [8]: > 30 µM (not active)
- EC50 [9]: 4.82 µM (active)

Compound: O=C(CN1C(=O)c2ccccc2C1=O)NCC(=O)OCC(=O)c1cccc([N+](=O)[O-])c1
- IC50 [25]: 17.4 µM (active)
- EC50 [26]: > 40 µM (inactive)

Compound: COc1ccc2nc(SC)c(C#N)cc2c1
- EC50 [1]: 12.3 µM (not active)
- EC50 [27]: > 260 µM (inactive)
- EC50 [2]: 14.1 µM (inactive)
- EC50 [3]: 41.8 µM (not active)

Compound: Cc1onc(-c2ccccc2Cl)c1C(=O)Nc1nnc(-c2ccc(Br)cc2)s1
- EC50 [1]: 45 µM (not active)
- EC50 [2]: > 79.4 µM (inactive)
- EC50 [3]: > 79.4 µM (not active)

Compound: O=C(Nc1nc(-c2ccc(S(=O)(=O)N3CCCCCC3)cc2)cs1)c1ccccc1
- EC50 [1]: 15.8 µM (not active)
- EC50 [2]: 13.3 µM (inactive)
- EC50 [3]: 40.9 µM (not active)

Compound: CN(C)/C=C/C(=O)c1ccc(Oc2ccccc2)cc1
- AC50 [10]: 4.26 µM (active)

Compound: COc1cc(/C=C/c2ccc3cccc(OC)c3n2)c(OC(C)=O)c([N+](=O)[O-])c1
- IC50 [25]: 10.2 µM (active)
- AC50 [24]: 7.38 µM (active)
- EC50 [26]: 26.9 µM (active)
